Assay [1] concerns the target T1, VHZ (LDP3) (Homo sapiens, UniProt Q9BVJ7).
T1 sequence (Q9BVJ7 1-150): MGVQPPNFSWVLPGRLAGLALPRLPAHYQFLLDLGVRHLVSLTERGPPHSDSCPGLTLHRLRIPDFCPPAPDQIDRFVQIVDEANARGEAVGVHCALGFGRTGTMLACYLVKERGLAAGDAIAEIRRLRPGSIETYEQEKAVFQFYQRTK
The experiment in a line: inhibition of pNPP hydrolysis, competitive model fit. The format is biochemical.

Assay [2] has as its target YopH.
Assay [3] has as its target T2, SsoPTP (Saccharolobus solfataricus, UniProt Q97VZ7).
T2 sequence (Q97VZ7 1-161): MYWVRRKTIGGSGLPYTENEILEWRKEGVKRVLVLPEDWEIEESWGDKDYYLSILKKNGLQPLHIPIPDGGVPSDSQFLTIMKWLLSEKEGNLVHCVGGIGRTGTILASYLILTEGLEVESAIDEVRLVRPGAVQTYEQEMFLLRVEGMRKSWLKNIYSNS
The experiment in a line: biochemical.

The target in assay [4] is T3, VHR (Homo sapiens, UniProt P51452). Put plainly: biochemical.
T3 sequence (P51452 whole entry): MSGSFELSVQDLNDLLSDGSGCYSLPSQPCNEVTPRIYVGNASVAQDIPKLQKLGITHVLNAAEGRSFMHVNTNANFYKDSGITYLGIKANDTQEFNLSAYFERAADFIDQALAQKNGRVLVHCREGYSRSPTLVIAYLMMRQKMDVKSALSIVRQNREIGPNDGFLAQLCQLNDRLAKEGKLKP
The target in assay [5] is PTP1B (Homo sapiens, UniProt P18031). The experiment in a line: biochemical.
Sequence of PTP1B (P18031 1-321 limits assumed): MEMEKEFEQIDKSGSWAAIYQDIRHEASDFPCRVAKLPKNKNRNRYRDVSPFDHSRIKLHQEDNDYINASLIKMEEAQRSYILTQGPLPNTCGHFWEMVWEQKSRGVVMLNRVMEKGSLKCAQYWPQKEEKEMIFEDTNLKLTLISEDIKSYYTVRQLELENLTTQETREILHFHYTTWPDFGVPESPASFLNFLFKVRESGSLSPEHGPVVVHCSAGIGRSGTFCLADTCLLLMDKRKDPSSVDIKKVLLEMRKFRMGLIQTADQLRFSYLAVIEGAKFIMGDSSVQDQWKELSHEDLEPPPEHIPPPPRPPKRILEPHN
For assay [6], the target named is T3, VHR. The experiment in a line: pre-steady-state burst kinetics, stopped flow at […] nm. The note with it: read-out: KS. It counts as biochemical.

Usually Ki stands for the dissociation constant of the complex between target and ligand, obtained from inhibition or displacement. Low readings indicate tighter binding, high ones weaker binding. Regarding `O=C(O)CN(CCN(CC(=O)O)CC(=O)O)CC(=O)O` [EDTA], the inhibition constant Ki in assay [1] was determined as 22 ± 2 mM.

As to `O=S(=O)(O)CCN1CCN(CCO)CC1` [HEPES], the Ki in assay [1] turned out to be 26 ± 3 mM.

With `O=P(O)(O)O` [Inorganic phosphate], the Ki in assay [1] turned out to be 0.67 ± 0.05 mM; in assay [2] it was 4.4 ± 0.2 mM; in assay [3] it was 0.54 ± 0.42 mM; in assay [4], 0.7 ± 0.3 mM; in assay [5], 3.7 ± 0.1 mM.

`O=S(=O)(O)O` [Sulfate]: in assay [1], the Ki is 4.6 ± 0.3 mM.

For `NC(CO)(CO)CO` [Tris], the affinity in assay [1] corresponds to a Ki of 88 ± 9 mM.

`[O]=[V]([OH])([OH])[OH]` [Vanadate] returned an inhibition constant (Ki) in assay [1] of 0.0027 ± 0.0003 mM.

With `O=[N+]([O-])c1ccc(OP(=O)(O)O)cc1` [pNPP], the Kd in assay [6] was 11.8 mM.

Values taken from publication PMC3856698 (Biochemistry, 2013).
